The test system of assay [1] is P. falciparum 3D7 asexual parasites. Briefly: P. falciparum growth inhibition assay (LDH activity, 72 h). The format is cell-based, Plasmodium falciparum. Conditions: Plasmodium falciparum; 3D7 asexual parasites, 72 h exposure, LDH activity; three independent experiments; read-out: Pf 3D7 EC50 (SD). The procedure: The ability of compounds to block growth of blood stage P. falciparum parasites was determined using a growth inhibition assay (GIA) as described. Compound potency was assessed with 10 point, threefold dilution series starting at 10 μM in duplicate per experiment and repeated in three independent experiments. Data were normalized to percent viability relative to 0.1% DMSO (high growth control) and 2.5 μM chloroquine (low growth control). EC50 values (relative inflection of dose–response curve) were calculated using a nonlinear regression four‐parameter fit analysis in DOTMATICS 5.3 and SPOTFIRE 7.11.1 software. The equation used was sigmoidal dose–response (variable slope), Y = bottom + (top − bottom)/(1 + 10 ((logEC50 − X) × Hill Slope)). Reported EC50 values were calculated on the average of three independent dataset. Assay robustness and data quality was assessed by Z′ > 0.5 (Z′ = 1 − (3 × (SD high + SD low)/(mean high − mean low))) and activity reproducibility of reference compound WM382, which was included in every experiment. Any drift in WM382 activity greater than threefold from the average acceptable range and the experiment was rejected and repeated.

For assay [2], the target named is T1, Plasmodium falciparum PMIX (Plasmodium falciparum, UniProt Q8ILG2).
T1 sequence (Q8ILG2 1-627): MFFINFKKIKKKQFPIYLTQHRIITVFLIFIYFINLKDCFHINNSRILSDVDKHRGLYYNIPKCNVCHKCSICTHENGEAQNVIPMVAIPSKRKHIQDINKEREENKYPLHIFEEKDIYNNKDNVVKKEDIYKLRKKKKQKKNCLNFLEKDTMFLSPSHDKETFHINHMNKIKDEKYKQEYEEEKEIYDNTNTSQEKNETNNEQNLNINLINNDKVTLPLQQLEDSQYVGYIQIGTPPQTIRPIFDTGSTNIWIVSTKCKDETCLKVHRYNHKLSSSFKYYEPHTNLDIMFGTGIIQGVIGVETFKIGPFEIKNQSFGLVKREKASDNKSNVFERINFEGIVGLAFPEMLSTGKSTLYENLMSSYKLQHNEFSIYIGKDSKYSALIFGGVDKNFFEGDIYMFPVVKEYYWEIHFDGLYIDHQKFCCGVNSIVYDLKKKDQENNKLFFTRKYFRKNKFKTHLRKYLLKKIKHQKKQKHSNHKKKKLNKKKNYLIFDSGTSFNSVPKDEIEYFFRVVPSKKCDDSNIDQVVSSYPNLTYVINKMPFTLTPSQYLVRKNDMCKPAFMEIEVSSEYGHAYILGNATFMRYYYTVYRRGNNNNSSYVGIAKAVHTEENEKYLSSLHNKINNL
Briefly: Plasmepsin IX fluorogenic substrate cleavage assay. The format is biochemical. The note with it: P. falciparum PMIX; average of three independent experiments; read-out: PMIX IC50 (SD). The procedure:
(§1) These fluorogenic assays follow protocols previously described. Compound potency was assessed with 10 point, threefold dilution series starting at 100 μM in duplicate per experiment and repeated in three independent experiments. Data were normalized to percent inhibition relative to 1% DMSO (high control) and either 1 μM WEHI‐600 for PMV and 1 μM WM382 for PMIX/PMX (low controls). IC50 values (relative inflection of dose–response curve) were calculated using a nonlinear regression four‐parameter fit analysis in DOTMATICS 5.3 (Dotmatics, Boston, MA, USA) and SPOTFIRE 7.11.1 (Goteborg, Sweden) software. The equation used was sigmoidal dose–response (variable slope), Y = bottom + (top − bottom)/(1 + 10 ((logIC50 − X) × Hill Slope)). Reported IC50 values were calculated based on the averages of three independent dataset. Assay robustness and data quality was assessed by Z′ > 0.5 (Z′ = 1 − (3 × (SD high + SD low)/(mean high − mean low))) and activity reproducibility of reference compound. WEHI‐600 (PMV) or WM382 (PMIX/PMX) were included as reference compounds in every experiment to monitor the assay performance. Any drift in activity greater than threefold from the average acceptable range and the experiment was rejected and repeated.

In assay [3] the target is T2, recombinant Plasmodium vivax PMV (Plasmodium vivax, UniProt A5K302).
T2 construct: PvPMV (residues R35–R476) was prepared similarly; gp67 signal peptide (N); TEV protease cleavage site + FLAG tag (C); made in house; host or cells: Sf21 insect cells
Briefly: Plasmepsin V fluorogenic substrate cleavage assay. The format is biochemical. The note with it: recombinant P. vivax PMV; average of three independent experiments; read-out: PMV IC50 (SD).
Text: To uncover nonpeptidomimetic drug‐like inhibitors of the aspartic protease PvPMV, we screened a library of 1298 compounds that were known to inhibit human aspartyl proteases. These compounds were selected by chemoinformatic structural diversity from a larger library of compounds that targeted human aspartyl proteases and has been used previously to identify hit compounds that inhibited P. falciparum growth. These hit compounds belonged to a single chemical class and were used to develop a lead compound WM382 that is a dual selective inhibitor of PMIX and PMX from P. falciparum and P. vivax. The screen utilized a FRET‐based assay with PvPMV and a fluorogenic EDANS‐DACBYL labeled peptide with the P. falciparum knob‐associated histidine‐rich protein (KAHRP) PEXEL motif amino acid sequence.
as §1

A further assay addresses P. falciparum PMX (Plasmodium falciparum, UniProt Q8IAS0). Description: Plasmepsin X fluorogenic substrate cleavage assay. The format is biochemical. Conditions: for IC50: P. falciparum PMX, average of three independent experiments, read-out: PMX IC50 (SD). Here is the method: as §1
Another assay concerns PMV. The note with it: cited from earlier work.
Another assay relates to PMIX. The note with it: cited from earlier work.
A further assay has as its system PMX. Conditions: cited from earlier work.
The test system of assay [4] is 3D7 strain of Plasmodium falciparum. Conditions: blood stage growth, read-out: Pf 3D7 EC50; cited from earlier work.
Setting [5] is: stated in text with reference to Fig. 1.

Values joined by “and” are separate entries in the source; they are usually repeats but may differ in a detail not shown here. Equal values may be shown once. Read-outs that look alike come from different tables or passages of the source.

The values below come from article PMC12138161, “Structure–activity analysis of imino‐pyrimidinone‐fused pyrrolidines aids the development of dual plasmepsin V and plasmepsin X inhibitors” (The Febs Journal, 2025).

As a reminder, the EC50 is the concentration that produces a half-maximal response. One may read the IC50 as the midpoint of a concentration-inhibition curve.

T2 sequence (A5K302 35-476): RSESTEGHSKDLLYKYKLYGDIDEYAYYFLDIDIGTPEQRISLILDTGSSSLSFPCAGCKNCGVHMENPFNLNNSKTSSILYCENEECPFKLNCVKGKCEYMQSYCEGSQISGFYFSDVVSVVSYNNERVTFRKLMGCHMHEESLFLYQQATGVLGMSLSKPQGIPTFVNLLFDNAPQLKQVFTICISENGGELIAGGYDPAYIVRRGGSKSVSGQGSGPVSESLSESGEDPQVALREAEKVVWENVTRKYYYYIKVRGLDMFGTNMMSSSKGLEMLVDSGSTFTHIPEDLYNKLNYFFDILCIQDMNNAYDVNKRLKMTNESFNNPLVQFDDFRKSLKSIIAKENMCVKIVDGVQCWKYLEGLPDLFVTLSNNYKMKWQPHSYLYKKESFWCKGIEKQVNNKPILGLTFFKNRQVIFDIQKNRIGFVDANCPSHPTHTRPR
Sequence of P. falciparum PMX (Q8IAS0 222-573): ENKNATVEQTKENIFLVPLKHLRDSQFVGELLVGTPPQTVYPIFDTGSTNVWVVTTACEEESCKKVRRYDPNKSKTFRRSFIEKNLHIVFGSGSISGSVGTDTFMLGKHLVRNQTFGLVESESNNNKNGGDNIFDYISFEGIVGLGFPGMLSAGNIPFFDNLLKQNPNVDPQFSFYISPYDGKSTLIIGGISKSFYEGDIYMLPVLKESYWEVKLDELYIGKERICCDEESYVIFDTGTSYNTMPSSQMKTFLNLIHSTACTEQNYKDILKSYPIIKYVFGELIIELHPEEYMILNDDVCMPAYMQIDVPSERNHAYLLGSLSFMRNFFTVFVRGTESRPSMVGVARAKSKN

`CN1C(=N)NC2(c3cc(F)ccc3F)CN(c3nn(C)cc3-c3ccccc3)CC2C1=O` (centres unmarked) [Compound 29]: the EC50 in assay [1] was greater than 10 µM. Also, the IC50 in assay [2] was 10400 nM; in assay [3], 1050 nM; on P. falciparum PMX, 3470 nM.

For `CN1C(=N)NC2(c3cc(F)ccc3F)CN(c3ncccc3-c3ccc(Cl)cc3F)CC2C1=O` (centres unmarked) [Compound 16], the EC50 in assay [1] was greater than 10 µM. In addition, the half-maximal inhibitory concentration (IC50) worked out at 417 nM in assay [2], 780 nM in assay [3] and 1330 nM at P. falciparum PMX.

For `Cc1ccc(-c2cccnc2N2CC3C(=O)N(C)C(=N)NC3(c3cc(F)ccc3F)C2)c(Cl)c1` (centres unmarked) [Compound 22], the half-maximal effective concentration (EC50) in assay [1] is greater than 10 µM. Besides, the IC50 in assay [2] was found to be 1630 nM; in assay [3], 690 nM; on P. falciparum PMX, 420 nM.

For `C[C@@H](NC[C@@H](O)[C@H](Cc1ccccc1)NC(=O)c1ccc(C(=O)N2CCN(C)CC2)cc1)c1ccccc1` [49c (3)], the half-inhibitory concentration (IC50) was greater than 1000 nM with PMV, 650 nM with PMIX and 1.4 nM in the assay with PMX. The concentration for a half-maximal effect (EC50) in assay [4] was 0.6 nM.

As to `CC(C)C[C@H](NC(=O)[C@@H](NC(=O)[C@H](CCONC(=N)N)NC(=O)OCc1ccccc1)C1CCCCC1)[C@@H](O)CC(=O)NCCc1ccccc1` [WEHI-601 (2)], the concentration for half-maximal inhibition (IC50) in the assay with PMV was 5 nM; in the assay on PMV (setting [5]) it was less than 20 nM; with PMIX, greater than 50000 nM; with PMX, 330 nM. The concentration for a half-maximal effect (EC50) in assay [4] was 90 nM.

Turning to `CN1C(=N)NC2(c3cc(F)ccc3F)CN(c3ncccc3-c3ccc(Cl)cc3Cl)CC2C1=O` (centres unmarked) [Compound 17], the 50% effective concentration (EC50) in assay [1] is greater than 10 µM. In addition, the half-maximal inhibitory concentration (IC50) stood at 360 nM in assay [2], 517 nM in assay [3] and 1070 nM at P. falciparum PMX.

For `CN1C(=N)NC2(c3cc(F)ccc3F)CN(c3ncsc3-c3ccccc3)CC2C1=O` (centres unmarked) [Compound 27], the 50% effective concentration (EC50) in assay [1] was greater than 10 µM. Moreover, the IC50 in assay [2] amounted to 990 nM; in assay [3], 440 nM; at P. falciparum PMX, 473 nM.

Regarding `CCC1(CC)CC(=O)N([C@@H]2CCOc3ccc(C(=O)N[C@H]4CC(C)(C)Oc5ccccc54)cc32)C(=N)N1` [WM382 (5)], the IC50 was greater than 1000 nM in the assay on PMV, 0.4 nM with PMIX and 0.04 nM with PMX. For the same compound, in assay [4], the EC50 is 0.6 nM.

Take `CN1C(=N)NC2(c3cc(F)ccc3F)CN(c3ncccc3-c3sccc3Cl)CC2C1=O` (centres unmarked) [R/S‐WM396 (25)]: the EC50 in assay [1] is 0.2 µM. Moreover, the IC50 in assay [2] was 350 nM; in assay [3] it was 1110 nM; at P. falciparum PMX it was 9 nM. Further, the “more potent against PMX” value at P. falciparum PMX (than the unsubstituted comparator analog 24) amounted to 8 ×.

For `CN1C(=N)NC2(c3cc(F)ccc3F)CN(c3ncccc3-c3cccc(Cl)c3)CC2C1=O` (centres unmarked) [Compound 12], the EC50 in assay [1] is greater than 10 µM. For the same compound, the IC50 in assay [2] is 390 to 1170 nM and 560 nM; in assay [3], greater than 3700 nM; at P. falciparum PMX it was 390 to 1170 nM and 390 nM.

With `CC(C)C[C@H](NC(=O)[C@@H](NC(=O)[C@H](CCONC(=N)N)NC(=O)OCc1ccccc1)C(C)C)[C@@H](O)CC(=O)NCCc1ccccc1` [WEHI-842 (1)], the IC50 is 19 nM in the assay on PMV, less than 20 nM in the assay with PMV (setting [5]), greater than 50000 nM in the assay on PMIX and 1700 nM in the assay with PMX. In addition, the concentration giving a half-maximal response (EC50) in assay [4] was 430 nM.

In the case of `Cc1c(NC(=O)c2cccc(C#N)c2)cccc1[C@]1(C)CC(=O)N([C@H]2CCO[C@@H](C)C2)C(=N)N1` [UCB7362 (4)], the half-maximal inhibitory concentration (IC50) in the assay with PMIX is 142 nM; with PMX, 7 nM. For the same compound, the concentration giving a half-maximal response (EC50) in assay [4] was 10 nM.

For `CN1C(=N)NC2(c3cc(F)ccc3F)CN(c3ncccc3-c3ccc(Cl)cc3)CC2C1=O` (centres unmarked) [R/S‐WM48 (14), 6‐(3‐(4‐chlorophenyl)pyridin‐2‐yl)‐7a‐(2,5‐difluorophenyl)‐2‐imino‐3‐methylhexahydro‐1H‐pyrrolo[3,4‐d]pyrimidin‐4(4aH)‐one], the EC50 in assay [1] is greater than 10 µM. Further, the IC50 was 1080 nM in assay [2], 357 nM in assay [3] and 343 nM on P. falciparum PMX.

With `COc1cccc(-c2cccnc2N2CC3C(=O)N(C)C(=N)NC3(c3cc(F)ccc3F)C2)c1` (centres unmarked) [Compound 13], in assay [1], the EC50 was greater than 10 µM. In addition, the IC50 was 390 to 1170 nM and 1170 nM in assay [2]; 1500 nM in assay [3]; 390 to 1170 nM and 473 nM at P. falciparum PMX.

Regarding `CN1C(=N)NC2(c3cc(F)ccc3F)CN(c3ncccc3-c3ccc(Cl)c(F)c3)CC2C1=O` (centres unmarked) [Compound 20], the EC50 in assay [1] was greater than 10 µM. Also, the IC50 in assay [2] was 1150 nM; in assay [3] it was 1010 nM; at P. falciparum PMX it was 440 nM.
